From patent US20030130308A1, “Drugs for spinal anesthesia” (priority 2001, published 2003)
Entries after “also recorded” stand apart in the source; their conditions may differ. Counter-ions that a name gives are not always drawn.

Tests used:
rats [1] = test: Withdrawal response to pinprick after infiltration into the left hind paw; format: in vivo; details: rat
Experimental: Withdrawal response to pinprick were also tested before and after infiltration of (50 nmoles in 100 μl) of 6-[2-(1(2)H-tetrazole-5-yl)ethyl]decahydroisoquinolone-3-carboxylic acid into the left hind paw (n=5). Responses were recorded before injection of 6-[2-(1(2)H-tetrazole-5-yl)ethyl]decahydroisoquinolone-3-carboxylic acid and at 15, 30 and 60 minutes after injection. This test was not blinded.

[2] = local infiltration of the drug in the incision; previously reported by this inventor; cited from earlier work
rats [3] = test: Withdrawal response to pinch with forceps at the hindpaw after intrathecal injection; format: in vivo; details: rat
Experimental: (§1) Rats were tested before 15 minutes through 240 minutes after intrathecal injection of 5 nmoles (in 10 μl) of 6-[2-(1(2)H-tetrazole-5-yl)ethyl]decahydroisoquinolone-3-carboxylic acid. Sensory function was tested at the hindpaw using withdrawal response to pinprick and withdrawal to pinch with a sharp forceps. Motor performance (ambulation, the placing reflex and Rotarod time), blood pressure and heart rate was also evaluated. Some tests were repeated the next day. Responses after 6-[2-(1(2)H-tetrazole-5-yl)ethyl]decahydroisoquinolone-3-carboxylic acid were compared to injection of 40 μl of bupivacaine, 0.75%. Pinprick responses at the forepaw, chest, abdomen, hindleg and hindpaw were also examined after intrathecal 6-[2-(1(2)H-tetrazole-5-yl)ethyl]decahydroisoquinolone-3-carboxylic acid.
(§2) Rats were anesthetized with halothane. The lumbar region was shaved, prepared with povidone-iodine, made kyphotic and incised 2 to 3 cm longitudinally in the midline at the level of the iliac crests. The space between the 5th and 6th lumbar vertebrae was punctured with 23G hypodermic needle and a 32G PU catheter (10 cm length, OD 0.0107 inches and ID 0.005 inches) reinforced with a Teflon coated stainless steel stylet (0.003 inches) was advanced through the needle cranially. The needle and the stylet were removed and the catheter withdrawn so that 6.5-7 cm extended outside of the lumbar masculature. The catheter was fixed to the fascia, sutured, inserted into an 8 cm length of PE-10 tubing and secured with glue covered with epoxy. The catheter was tunneled under the skin to the cervical region, flushed with saline and sealed with a cautery pen. The dead space of the catheter was 4.5 to 5 μl. The skin was closed and the rat was allowed to recover from anesthesia for 2-3 days.
First, the withdrawal response to pinprick was tested on each hindpaw. A 5 mm long tip of a safety pin attached to a von Frey filament (520 mN) was applied once to the plantar aspect of each hindpaw. Either a withdrawal response or a reaction occurred (1=positive response) or no withdrawal (0=no response). The sum of the scores (0, 1 or 2) for each rat was recorded. If no response or reaction was elicited by pinprick, a serrated dissecting forceps was used to pinch the skin of the plantar region for 2-3 sec. Again, withdrawal or reaction was considered a positive response (score=1) and the absence of both a negative test (score=0). […] Because the response to pinch was quite vigorous and rats were subjected to repeated tests in a single day, only rats unresponsive to pinprick were tested for pinch. If pinprick evoked a response, pinch was designated as positive also. The sum of the scores after pinch (0, 1 or 2) was recorded.
(§3) The dose and volume of drugs injected intrathecally were determined from the dose required to produce hindlimb sensory and motor loss in preliminary experiments. Bupivacaine HCl (0.75% in 8.25% dextrose for spinal injection) was purchased from Abbott Laboratories (Chicago, Ill.). The intrathecal injection volume was 40 μl. The compound was dissolved in 10% dextrose and water. The injection volume was 1 ul. All intrathecal drug injections were followed by a flush of 10 μl preservative-free saline.

rats [4] = test: Segmental pinprick testing at hindpaw, hindleg, abdomen, chest and forepaw after intrathecal injection; format: in vivo; details: rat
Experimental: as §1
In a separate group of rats (n=5), the response to pinprick was tested once on the left hindpaw, the left hindleg, the lower abdomen, the chest and the left forepaw in rats injected with intrathecal 6-[2-(1(2)H-tetrazole-5-yl)ethyl]decahydroisoquinolone-3-carboxylic acid. Withdrawal, muscle contraction, or attempted escape reaction to pinprick was considered a positive test whereas their absence was considered a negative response. This test was not blinded.

rats [5] = test: Overall sensory and motor blockade of the hindlimbs after intrathecal injection; format: in vivo; details: rat
Experimental: as §1, §2, §3

[6] = bupivacaine 0.75% 40 μl intrathecal

Row | Structure (SMILES) | change in withdrawal response to pinprick from baseline (rats [1]; 50 nmoles in 100 μl infiltrated into the hind paw, n=5) | rats withdrawing to pinprick (rats [1]; 50 nmoles in 100 μl into the hind paw, n=5, at 15, 30 and 60 minutes) | effect on pain after incision [2] | greater inhibition of pinch than bupivacaine (P<0.05) through (rats [3]; 5 nmoles intrathecal vs bupivacaine) [h] | all rats failed to respond to pinch through (P<0.05 vs Pre) (rats [3]; 5 nmoles intrathecal, from 15 minutes) [min] | recovery of pinch response the next day (rats [3]; 5 nmoles intrathecal, next day) | segmental blockade of the response to pinprick (rats [4]; 5 nmoles intrathecal) | evidence of sensory block of the forelimb (rats [4]; intrathecal, n=5, not blinded) | sensation to pinprick blocked below the chest in all rats through (rats [4]; intrathecal, n=5, not blinded) [min] | sensation to pinprick blocked in the hindlimb through (rats [4]; intrathecal, n=5, not blinded) [min] | effects compared with bupivacaine (rats [5]; 5 nmoles intrathecal vs bupivacaine 0.75% 40 μl) | greater motor deficits than bupivacaine (P<0.05) in all tests of motor function, through (rats [5]; 5 nmoles intrathecal vs bupivacaine, from 30 minutes) [h] | sensory and motor blockade of the hindlimbs (rats [5]; 5 nmoles intrathecal) | sensory and motor responses blocked through (rats [5]; 5 nmoles intrathecal) [min] | recovery of sensory and motor responses the following day (rats [5]; 5 nmoles intrathecal, following day) | time of full recovery of response to pinch (rats [3]; [6]) [min] | response to pinch vs Pre (rats [3]; bupivacaine 0.75% 40 μl intrathecal, 15 minutes after injection) | sensory and motor responses (rats [5]; [6])
1 | O=C(O)C1CC2CC(CCc3nnn[nH]3)CCC2CN1 (stereo not drawn) [LY293558, 6-[2-(1(2)H-tetrazole-5-yl)ethyl]decahydroisoquinolone-3-carboxylic acid] | no change; also recorded: did not affect | All five rats withdrew | no effect | 4 | 90 | recovered fully | present | in only one test at 15 minutes | 90 | 120 | more pronounced and sustained than bupivacaine; also recorded: more pronounced and prolonged | 3 | reversible, sustained sensory and motor blockade | 180 | complete recovery |  |  | 
2 | CCCCN1CCCCC1C(=O)Nc1c(C)cccc1C (stereo not drawn) [Bupivacaine, Bupivacaine HCl] |  |  |  |  |  |  |  |  |  |  |  |  |  |  |  | 30 | reduced | decreased
